What all share (type): cell-based, human
Assay [1] relates to MELOE-111-30 specific CD4 T cell clone (5F9-DRβ1*0101). The experiment in a line: Peptide stimulation of CD4 T cell clone 5F9, intracellular cytokine staining. The settings on record: clone 5F9, cognate peptide 10 μM, 5 hours. On the procedure:
(§1) FIG. 5: Minimal peptides recognized by MELOE-1 specific CD4 T cell clones. MELOE-1 specific CD4 T cell clones were incubated with various concentrations of the indicated peptides during 5 hours in presence of Brefeldin A. TNF-α production was assessed by intracellular labeling with an anti-TNF-α specific antibody. The core peptide sequence is indicated in bold on each figure panel, and black circles illustrate the best fitting peptide.
(§2) Lymphocytes were stimulated for 5 hours in the presence of brefeldin A (10 μg/mL) either with peptide alone (10 μM) in an autopresentation assay or with B-EBV or HLA-class II expressing melanoma cells pulsed 2 hours with the cognate peptide, at a ratio 1:2. In some experiments, blocking mAb against HLA-DP (clone B7.21 from Dr Charron, UMR940, Paris), HLA-DQ (clone SPVL3, Beckman Coulter) or HLA-DR (clone L243, BD Biosciences) were added at a concentration of 12.5 μg/ml. Cells were then stained with APC-conjugated anti-CD4 mAb, fixed with 4% paraformaldehyde, labeled with PE-conjugated anti-cytokine mAb and analyzed by flow cytometry.
(§3) We also documented the T helper profile of each T cell clone, by stimulating the CD4 T cell clones with the cognate peptide, and analyzing cytokine production. All the clones expressed Th1 cytokines (TNFα, IFNγ, IL2 and GM-CSF). On the contrary, these clones differ in their expression of Th2 cytokines. Indeed, the two DQ2 restricted T cell clones (9C12 and 4E2) and the DR1 restricted one (5F9) also strongly express two Th2 cytokines (IL4, and IL13), whereas the DR11-restricted T cell clone only weakly expressed IL4 (Table IV). None of the CD4 T cell expresses IL10 or IL5 at a significant level.
(§4) Three shorter peptides were better recognized by the DQ2-restricted 9C12 T cell clone, the shortest one being MELOE-17-19 (13-mer), recognized with an EC50 of 100 nM. The deletion of the two amino acids in C-term strongly reduces T cell clone recognition. […] Nonetheless all of these clones recognized a series of shortened peptides, thus we cannot formally assess that the shortest ones will be the exact peptides naturally presented on class II molecules.

The test system of assay [2] is MELOE-111-30 specific CD4 T cell clone (1A5-DRβ1*1101). The experiment in a line: Peptide stimulation of CD4 T cell clone 1A5, intracellular cytokine staining. Conditions: cognate peptide 10 μM, 5 hours. On the procedure:
as §1, §2, §3, §4

Assay [3] deals with MELOE-1 specific T cell clones. The assay is described as follows: HLA restriction of MELOE-1 specific T cell clones (anti-HLA blocking antibodies, HLA-matched B-EBV cell lines). On the procedure: FIG. 3: HLA-restricting element of MELOE-1 specific T cell clones and reactivity against HLA-matched melanoma cell lines. The HLA restriction of MELOE-1 specific T cell clones was first assessed using anti-HLA blocking antibodies (upper panel). T cell clones were stimulated for 5 hours in the presence of brefeldin A (10 μg/mL) either with peptide alone (10 μM) in an autopresentation assay and in presence or not of blocking antibodies at a concentration of 12.5 μg/mL. HLA restriction was confirmed with HLA-matched B-EBV cell lines pulsed 2 hrs with the cognate peptide, at a ratio 1:2 (middle panel). Reactivity of each T cell clone against HLA-class II expressing melanoma cells was assessed, in presence or not of exogeneous peptide (lower panel). After 5 hours of stimulation, cells were then stained with APC-conjugated anti-CD4 mAb, fixed with 4% paraformaldehyde, labeled with PE-conjugated anti-TNF-α mAb and analyzed by flow cytometry.
as §2
In order to formally characterize the recognized epitopes, we derived CD4 T cell clones specific for each region of MELOE-1 by limiting dilution, from microcultures of healthy donors or melanoma patients, containing at least 0.5% of specific CD4 T cells. We succeeded to derive CD4 specific T cell clones from HD17, HD22, HD25 and Pt≠3 microcultures, which were reactive against MELOE-12-21 (HD22), MELOE-111-30 (HD17 and Pt≠3) and MELOE-126-46 (HD25). From each cloning experiment, we obtained between one and ten reactive CD4 T cell clones, that turned out to be the same clonotype after CDR3B sequencing (Table IV). A single CD4 T cell clone for each specificity was used for further experiments. The HLA-restriction was determined for each T cell clone, first by using HLA-class II blocking monoclonal antibodies (FIG. 3, upper panel), and further by testing the recognition of HLA-matched B-EBV cell lines loaded with each recognized long peptide (FIG. 3 middle panel). The two T cell clones named 9C12 and 4E2, derived from HD22 and HD25 and specific for MELOE-12-21 and MELOE-126-46 were restricted by the HLA-DQβ1*0202 and the DQβ1*0201 molecules respectively. […]

In assay [4] the test system is MELOE-12-21 specific CD4 T cell clone (9C12-DQβ1*0202). The experiment in a line: Peptide stimulation of CD4 T cell clone 9C12, intracellular cytokine staining. The settings on record: cognate peptide 10 μM, 5 hours. On the procedure: as §1, §2, §3, §4

Turning to TSREQFLPSEGAACPPWHPS [MELOE-111-30], in assay [1], the “Cytokine profile: GM-CSF” value is “GM-CSF ^high”, the “Cytokine profile: IFN” value is recorded as “IFN ^high”, the “Cytokine profile: IL2” value was “IL2 ^low” and the “Cytokine profile: IL4” value is “IL4 ^high”. For the same sequence, in assay [1], the “Cytokine profile: IL5” value is reported as “IL5 ^neg”, the “Cytokine profile: IL10” value is “IL10 ^neg” and the “Cytokine profile: IL13” value was “IL13 ^high”. Further, the “Cytokine profile: TNF” value in assay [1] (autopresentation) is recorded as “TNF ^high”. Besides, in assay [2], the “Cytokine profile: GM-CSF” value is given as “GM-CSF ^high”, the “Cytokine profile: IFN” value is “IFN ^high”, the “Cytokine profile: IL2” value is “IL2 ^high” and the “Cytokine profile: IL4” value is given as “IL4 ^low”. Besides, in assay [2], the “Cytokine profile: IL5” value is on record as “IL5 ^neg”, the “Cytokine profile: IL10” value was “IL10 ^neg” and the “Cytokine profile: IL13” value is reported as “IL13 ^neg”. The “Cytokine profile: TNF” value in assay [2] (autopresentation) was “TNF ^high”. The “HLA-restricting element of the peptide-specific T cell clone” value (shortened to “HLA-restricting element”) in assay [3] (T cell clone 1A5) is on record as “HLA-DRβ1*1101”. For the same sequence, the “HLA-restricting element” value in assay [3] (T cell clone 5F9) is “HLA-DRβ1*0101”.

Take “SCVGYPDEATSREQFLPSEG (SCVGYPDEATSREQFLPSEC) [MELOE-12-21]”: in assay [4], the “Cytokine profile: GM-CSF” value is given as “GM-CSF ^high”, the “Cytokine profile: IFN” value was “IFN ^high”, the “Cytokine profile: IL2” value was “IL2 ^high” and the “Cytokine profile: IL4” value is recorded as “IL4 ^high”. Moreover, in assay [4], the “Cytokine profile: IL5” value was “IL5 ^low”, the “Cytokine profile: IL10” value was “IL10 ^neg” and the “Cytokine profile: IL13” value is listed as “IL13 ^high”. The “Cytokine profile: TNF” value in assay [4] (autopresentation) was “TNF ^high”. In addition, the “HLA-restricting element” value in assay [3] (T cell clone 9C12 (from HD22)) is “HLA-DQβ1*0202”.

The values are drawn from patent US9573975B2, “Melanoma antigen peptide and uses thereof” (INSERM (INSTITUT NATIONAL DE LA SANTE ET DE LA RECHERCHE …, priority 2012, dated 2017).
